The source of these data is patent US11466006B2, “Dual selective PI3 delta and gamma kinase inhibitors” (Rhizen Pharmaceuticals SA, priority 2013, dated 2022).

For experiment [1], the system named is Female Wistar rats. Kind of experiment: Lipopolysaccharide induced pulmonary neutrophilia in female Wistar rat model. The class given is in vivo. Conditions: Neutrophil, oral gavage, 1 h before intratracheal LPS, BAL at 6 h, read-out: ED50, reduction of neutrophil infiltration into the lungs. How it is done:
After the quarantine period, fasted animals were randomized and divided into various groups depending on their body weights. The test compound [Compound A1] was prepared as a suspension in a vehicle consisting of 0.5% methylcellulose in which Tween 80 as a suspending agent. The compound or vehicle was administered by oral gavage in a volume of 10 mL/kg. Female Wistar rats were anaesthetized with ketamine and LPS solution was administered intratracheally one hour after compound administration at a dose of 1 mg/kg. 6 h after LPS instillation, animals were exsanguinated under anaesthesia, and then trachea was cannulated and the lungs were lavaged with 5-ml aliquots of heparinised PBS (1 unit/ml) four times through tracheal cannula (total volume 20 ml). Bronchoalveolar lavage (BAL) fluid was been stored at 2-8° C. until assayed for total cell and differential leukocyte count. Bronchioalveolar fluid was centrifuged (500×g for 10 min) and the resulting cell pellet was resuspended in 0.5 ml of heparinised saline. The total numbers of white blood cells were determined in BAL fluid or blood by using a blood cell counter and was adjusted to 1×10^6 cell/ml. Differential cell count was calculated manually. […] The number of each cell type among 300 white blood cells in the cell smear was determined and expressed as a percentage. The number of eosinophil in each BALf or blood was calculated.

In experiment [2] the target is T1, Pi3K α (Homo sapiens, UniProt P42336).
T1 construct: purchased Millipore (assay kit)
Kind of experiment: Fluorescent (HTRF) determination of PI3 kinase enzyme activity, alpha isoform. Type of experiment: biochemical. The following applies: Table 1, HTRF. The source says:
Phosphoinositide 3 kinases (PI3K) belong to a class of lipid kinases that play a critical role in the regulation of several key cellular processes. The PI3K are capable of phosphorylating the 3-hydroxy position of phosphoinositols thereby generating second messengers involved in downstream signalling events. The homogenous time resolved fluorescence (HTRF) assay allows detection of 3,4,5-triphosphate (PIP3) formed as a result of phosphorylation of phosphotidylinositol 4,5-biphosphate (PIP2) by PI3K isoforms such as α, β, γ or δ.
PI3K isoform activity for α, β, γ or δ was determined using a PI3K human HTRF™ Assay Kit (Millipore, Billerica, Mass.) with modifications. All incubations were carried out at room temperature. Briefly, 0.5 μl of 40× inhibitor (in 100% DMSO) or 100% DMSO were added to each well of a 384-well white plate (Greiner Bio-One, Monroe, N.C.) containing 14.5 μl 1× reaction buffer /PIP2 (10 mM MgCl2, 5 mM DTT, 1.38 μM PIP2) mix with or without enzyme, followed by 5 μl/well of 400 μM ATP and incubated for an additional 30 minutes. Reaction was terminated by adding 5 μl/well stop solution (Millipore, Billerica, Mass.). […] HRTF ratio was measured on a microplate reader (BMG Labtech., Germany) at an excitation wavelength of 337 nm and emission wavelengths of 665 and 615 nm with an integration time of 400 msec counting delay of 50 msec.

T1 sequence (P42336 whole entry): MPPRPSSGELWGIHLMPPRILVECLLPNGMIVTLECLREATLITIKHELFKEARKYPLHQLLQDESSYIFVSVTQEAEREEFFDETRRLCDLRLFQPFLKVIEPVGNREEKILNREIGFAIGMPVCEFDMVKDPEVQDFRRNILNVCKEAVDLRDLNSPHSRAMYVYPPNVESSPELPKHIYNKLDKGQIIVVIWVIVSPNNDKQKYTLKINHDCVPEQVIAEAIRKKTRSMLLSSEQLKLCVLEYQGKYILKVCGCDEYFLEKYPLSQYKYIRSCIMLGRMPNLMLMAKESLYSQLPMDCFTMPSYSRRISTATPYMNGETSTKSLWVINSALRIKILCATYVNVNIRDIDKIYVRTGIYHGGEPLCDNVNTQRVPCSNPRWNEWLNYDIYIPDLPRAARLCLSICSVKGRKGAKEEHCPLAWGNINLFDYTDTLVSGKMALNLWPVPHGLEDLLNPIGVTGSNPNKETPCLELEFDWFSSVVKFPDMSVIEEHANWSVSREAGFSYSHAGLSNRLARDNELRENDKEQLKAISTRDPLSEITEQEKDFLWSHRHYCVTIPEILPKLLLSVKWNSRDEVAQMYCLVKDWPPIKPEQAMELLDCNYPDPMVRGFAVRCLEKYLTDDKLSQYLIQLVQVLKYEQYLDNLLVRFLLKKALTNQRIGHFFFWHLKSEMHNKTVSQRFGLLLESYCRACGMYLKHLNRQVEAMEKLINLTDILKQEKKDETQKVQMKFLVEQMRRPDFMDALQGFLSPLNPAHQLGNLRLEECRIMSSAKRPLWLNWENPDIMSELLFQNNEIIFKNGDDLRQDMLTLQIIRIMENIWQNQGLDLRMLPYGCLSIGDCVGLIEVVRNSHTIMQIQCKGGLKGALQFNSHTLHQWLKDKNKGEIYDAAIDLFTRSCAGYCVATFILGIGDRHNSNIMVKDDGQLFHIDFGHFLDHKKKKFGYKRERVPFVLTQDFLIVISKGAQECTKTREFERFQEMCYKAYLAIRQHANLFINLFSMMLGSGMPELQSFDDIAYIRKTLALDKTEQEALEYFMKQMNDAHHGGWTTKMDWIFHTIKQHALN
T1 sequence (P27986 whole entry partner): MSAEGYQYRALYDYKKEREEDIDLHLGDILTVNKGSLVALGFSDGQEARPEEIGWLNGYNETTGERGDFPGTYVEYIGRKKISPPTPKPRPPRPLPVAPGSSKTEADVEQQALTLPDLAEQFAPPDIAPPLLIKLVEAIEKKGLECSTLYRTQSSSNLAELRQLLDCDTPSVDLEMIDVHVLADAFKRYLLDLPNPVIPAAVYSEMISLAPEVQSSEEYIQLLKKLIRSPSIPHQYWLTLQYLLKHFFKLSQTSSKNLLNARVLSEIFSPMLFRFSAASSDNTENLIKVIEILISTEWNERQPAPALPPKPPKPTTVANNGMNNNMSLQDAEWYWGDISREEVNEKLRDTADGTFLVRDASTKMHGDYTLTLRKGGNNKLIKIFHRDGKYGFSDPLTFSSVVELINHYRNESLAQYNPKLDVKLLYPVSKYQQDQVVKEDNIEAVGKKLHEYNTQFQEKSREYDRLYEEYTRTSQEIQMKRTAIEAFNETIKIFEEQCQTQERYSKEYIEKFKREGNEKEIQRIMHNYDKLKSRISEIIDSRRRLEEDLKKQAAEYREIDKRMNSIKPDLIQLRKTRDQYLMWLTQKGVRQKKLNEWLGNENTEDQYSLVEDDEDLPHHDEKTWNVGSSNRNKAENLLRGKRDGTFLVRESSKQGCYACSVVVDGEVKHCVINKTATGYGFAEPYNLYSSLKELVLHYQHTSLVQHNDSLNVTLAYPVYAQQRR

Turning to `CC[C@H](Nc1ncnc2[nH]cnc12)c1oc2ccccc2c(=O)c1-c1cccc(F)c1` [Compound A1, (S)-2-(1-(9H-purin-6-ylamino)propyl)-3-(3-fluorophenyl)-4H-chromen-4-one], the ED50 in experiment [1] was 6.5 mg/kg. Besides, the IC50 in experiment [2] was > 10000 nM.
